Experimental data from patent publication US20230348442A1, “GALECTIN-3 INHIBITING 2-HYDROXYCYCLOALKANE-1-CARBAMOYL DERIVATIVES” (Idorsia Pharmaceuticals Ltd, priority 2020, published 2023).

Biological target: human Gal-3 (hGal-3) (Homo sapiens (Human), UniProt P17931)
Assay: competitive binding assay: binding of biotinylated hGal-3 to microplate-adsorbed asialofetuin (ASF), spectrophotometric
Conditions: Activity on hGal-3; mean values of several measurements
Procedure: Evaluation of Compound Inhibitory Activity (IC50)
The inhibitory activity of compounds is determined in competitive binding assays. This spectrophotometric assay measures the binding of biotinylated human Gal-3 (hGal-3) or human Gal-1 (hGal-1), respectively, to a microplate-adsorbed glycoprotein, asialofetuin (ASF) (Proc Natl Acad Sci USA. 2013 Mar. 26; 110(13):5052-7.). Alternatively, and preferably, a human Gal-1 version in which all six cysteines are substituted by serines may be used.
Briefly, compounds are serially diluted in DMSO (working dilutions). ASF-coated 384 well plates are supplemented with 22.8 μL/well of biotinylated hGal-3 or hGal-1 in assay buffer (i.e. 300-1000 ng/mL biotinylated hGal-3 or hGal-1) to which 1.2 μL of compound working dilutions are added and mixed.
Plates are incubated for 3 hours at 4° C., then washed with cold assay buffer (3×50 uL), incubated for 1 hour with 25 μL/well of a streptavidin-peroxidase solution (diluted in assay buffer to 80 ng/mL) at 4° C., followed by further washing steps with assay buffer (3×50 uL). Finally, 25 μL/well of ABTS substrate is added.
The calculated IC50 values may fluctuate depending on the daily assay performance. Fluctuations of this kind are known to those skilled in the art. IC50 values from several measurements are given as mean values.

Sequence of human Gal-3 (hGal-3) (P17931 whole entry): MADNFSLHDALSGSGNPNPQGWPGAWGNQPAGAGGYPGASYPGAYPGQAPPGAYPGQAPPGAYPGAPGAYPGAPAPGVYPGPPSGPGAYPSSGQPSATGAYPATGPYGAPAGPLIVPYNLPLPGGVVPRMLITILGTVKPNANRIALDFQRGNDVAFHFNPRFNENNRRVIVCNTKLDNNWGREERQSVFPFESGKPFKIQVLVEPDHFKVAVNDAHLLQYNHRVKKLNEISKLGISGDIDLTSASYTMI

SMILES | IC50 [nM]
CO[C@@H]1[C@@H](n2cc(-c3cc(F)c(Cl)c(F)c3)nn2)[C@@H](O)[C@@H](CO)O[C@H]1C(=O)N(c1cc(Cl)cc(C#N)c1)[C@@H]1CCC[C@H]1O [Example 1.5.4R, (2R,3R,4S,5R,6R)-4-(4-(4-chloro-3,5-difluorophenyl)-1H-1,2,3-triazol-1-yl)-N-(3-chloro-5-cyanophenyl)-5-hydroxy-N-((1R,2R)-2-hydroxycyclopentyl)-6-(hydroxymethyl)-3-methoxytetrahydro-2H-pyran-2-carboxamide] | 153
CO[C@@H]1[C@@H](n2cc(-c3ccc(Cl)c(Cl)c3)nn2)[C@@H](O)[C@@H](CO)O[C@H]1C(=O)N(c1cc(Cl)cc(C#N)c1)[C@@H]1CCC[C@H]1O [Example 1.8.4R, (2R,3R,4S,5R,6R)-N-(3-chloro-5-cyanophenyl)-4-(4-(3,4-dichlorophenyl)-1H-1,2,3-triazol-1-yl)-5-hydroxy-N-((1R,2R)-2-hydroxycyclopentyl)-6-(hydroxymethyl)-3-methoxytetrahydro-2H-pyran-2-carboxamide] | 330
CO[C@@H]1[C@@H](n2cc(-c3ccc(C#N)c(F)c3)nn2)[C@@H](O)[C@@H](CO)O[C@H]1C(=O)N(c1cc(C)cc(C#N)c1)[C@H]1CCC[C@@H]1O [Example 1.16.8, (2R,3R,4S,5R,6R)-4-(4-(4-cyano-3-fluorophenyl)-1H-1,2,3-triazol-1-yl)-N-(3-cyano-5-methylphenyl)-5-hydroxy-N-((1S,2S)-2-hydroxycyclopentyl)-6-(hydroxymethyl)-3-methoxytetrahydro-2H-pyran-2-carboxamide] | 163
CO[C@@H]1[C@@H](n2cc(-c3cc(F)c(F)c(F)c3)nn2)[C@@H](O)[C@@H](CO)O[C@H]1C(=O)N(c1cc(Cl)cc(C#N)c1)[C@H]1CCC[C@@H]1O [Example 1.1.4, (2R,3R,4S,5R,6R)-N-(3-chloro-5-cyanophenyl)-5-hydroxy-N-((1S,2S)-2-hydroxycyclopentyl)-6-(hydroxymethyl)-3-methoxy-4-(4-(3,4,5-trifluorophenyl)-1H-1,2,3-triazol-1-yl)tetrahydro-2H-pyran-2-carboxamide] | 27.3
CO[C@@H]1[C@@H](n2cc(-c3ccc(C#N)c(F)c3)nn2)[C@@H](O)[C@@H](CO)O[C@H]1C(=O)N(c1cc(Cl)cc(C#N)c1)[C@@H]1CCC[C@H]1O [Example 1.16.4R, (2R,3R,4S,5R,6R)-N-(3-chloro-5-cyanophenyl)-4-(4-(4-cyano-3-fluorophenyl)-1H-1,2,3-triazol-1-yl)-5-hydroxy-N-((1R,2R)-2-hydroxycyclopentyl)-6-(hydroxymethyl)-3-methoxytetrahydro-2H-pyran-2-carboxamide] | 978
CO[C@@H]1[C@@H](n2cc(-c3cc(F)c(Br)c(F)c3)nn2)[C@@H](O)[C@@H](CO)O[C@H]1C(=O)N(c1cc(Br)cc(C#N)c1)[C@H]1CC[C@@H]1O [Example 2.6.5, (2R,3R,4S,5R,6R)-4-(4-(4-bromo-3,5-difluorophenyl)-1H-1,2,3-triazol-1-yl)-N-(3-bromo-5-cyanophenyl)-5-hydroxy-N-((1S,2S)-2-hydroxycyclobutyl)-6-(hydroxymethyl)-3-methoxytetrahydro-2H-pyran-2-carboxamide] | 70.9
CO[C@@H]1[C@@H](n2cc(-c3ccc(Cl)c(F)c3F)nn2)[C@@H](O)[C@@H](CO)O[C@H]1C(=O)N(c1cc(Cl)cc(C#N)c1)[C@@H]1CCC[C@H]1O [Example 1.14.4R, (2R,3R,4S,5R,6R)-4-(4-(4-chloro-2,3-difluorophenyl)-1H-1,2,3-triazol-1-yl)-N-(3-chloro-5-cyanophenyl)-5-hydroxy-N-((1R,2R)-2-hydroxycyclopentyl)-6-(hydroxymethyl)-3-methoxytetrahydro-2H-pyran-2-carboxamide] | 89.8

The remaining compounds from weak to strong by IC50, led by results:

IC50 [nM] | SMILES
612 | CO[C@@H]1[C@@H](n2cc(-c3cccc(F)c3)nn2)[C@@H](O)[C@@H](CO)O[C@H]1C(=O)N(c1cc(Br)cc(C#N)c1)[C@@H]1CCC[C@H]1O [Example 1.15.5R, (2R,3R,4S,5R,6R)-N-(3-bromo-5-cyanophenyl)-4-(4-(3-fluorophenyl)-1H-1,2,3-triazol-1-yl)-5-hydroxy-N-((1R,2R)-2-hydroxycyclopentyl)-6-(hydroxymethyl)-3-methoxytetrahydro-2H-pyran-2-carboxamide]
107 | CO[C@@H]1[C@@H](n2cc(-c3ccc(Br)c(F)c3F)nn2)[C@@H](O)[C@@H](CO)O[C@H]1C(=O)N(c1cc(F)cc(C#N)c1)[C@@H]1CC[C@H]1O [Example 2.12.7R, (2R,3R,4S,5R,6R)-4-(4-(4-bromo-2,3-difluorophenyl)-1H-1,2,3-triazol-1-yl)-N-(3-cyano-5-fluorophenyl)-5-hydroxy-N-((1R,2R)-2-hydroxycyclobutyl)-6-(hydroxymethyl)-3-methoxytetrahydro-2H-pyran-2-carboxamide]
98.7 | CO[C@@H]1[C@@H](n2cc(-c3ccc(C)c(F)c3F)nn2)[C@@H](O)[C@@H](CO)O[C@H]1C(=O)N(c1cc(Br)cc(C#N)c1)[C@@H]1CC[C@H]1O [Example 2.11.5R, (2R,3R,4S,5R,6R)-N-(3-bromo-5-cyanophenyl)-4-(4-(2,3-difluoro-4-methylphenyl)-1H-1,2,3-triazol-1-yl)-5-hydroxy-N-((1R,2R)-2-hydroxycyclobutyl)-6-(hydroxymethyl)-3-methoxytetrahydro-2H-pyran-2-carboxamide]
46.3 | CO[C@@H]1[C@@H](n2cc(-c3cc(F)c(Cl)c(Cl)c3)nn2)[C@@H](O)[C@@H](CO)O[C@H]1C(=O)N(c1cc(Br)cc(C#N)c1)[C@H]1CCC[C@@H]1O [Example 1.17.5, (2R,3R,4S,5R,6R)-N-(3-bromo-5-cyanophenyl)-4-(4-(3,4-dichloro-5-fluorophenyl)-1H-1,2,3-triazol-1-yl)-5-hydroxy-N-((1S,2S)-2-hydroxycyclopentyl)-6-(hydroxymethyl)-3-methoxytetrahydro-2H-pyran-2-carboxamide]
42.4 | CO[C@@H]1[C@@H](n2cc(-c3cc(F)c(F)c(F)c3)nn2)[C@@H](O)[C@@H](CO)O[C@H]1C(=O)N(c1cccc(I)c1)[C@H]1CCC[C@@H]1O [Example 1.1.6, (2R,3R,4S,5R,6R)-5-hydroxy-N-((1S,2S)-2-hydroxycyclopentyl)-6-(hydroxymethyl)-N-(3-iodophenyl)-3-methoxy-4-(4-(3,4,5-trifluorophenyl)-1H-1,2,3-triazol-1-yl)tetrahydro-2H-pyran-2-carboxamide]
25.7 | CO[C@@H]1[C@@H](n2cc(-c3ccc(F)c(F)c3F)nn2)[C@@H](O)[C@@H](CO)O[C@H]1C(=O)N(c1cc(Cl)cc(C#N)c1)[C@H]1CCC[C@@H]1O [Example 1.20.4, (2R,3R,4S,5R,6R)-N-(3-chloro-5-cyanophenyl)-5-hydroxy-N-((1S,2S)-2-hydroxycyclopentyl)-6-(hydroxymethyl)-3-methoxy-4-(4-(2,3,4-trifluorophenyl)-1H-1,2,3-triazol-1-yl)tetrahydro-2H-pyran-2-carboxamide]
25.5 | CO[C@@H]1[C@@H](n2cc(-c3ccc(Cl)c(F)c3F)nn2)[C@@H](O)[C@@H](CO)O[C@H]1C(=O)N(c1cc(Br)cc(C#N)c1)[C@@H]1CCC[C@H]1O [Example 1.14.5R, (2R,3R,4S,5R,6R)-N-(3-bromo-5-cyanophenyl)-4-(4-(4-chloro-2,3-difluorophenyl)-1H-1,2,3-triazol-1-yl)-5-hydroxy-N-((1R,2R)-2-hydroxycyclopentyl)-6-(hydroxymethyl)-3-methoxytetrahydro-2H-pyran-2-carboxamide]
19.8 | CC(=O)O[C@@H]1[C@@H](n2cc(-c3cc(F)c(Cl)c(F)c3)nn2)[C@@H](O)[C@@H](CO)O[C@H]1C(=O)N(c1cc(Cl)cc(Cl)c1)[C@H]1CCC[C@@H]1O [Example 1A.5.2, (2R,3R,4S,5R,6R)-4-(4-(4-chloro-3,5-difluorophenyl)-1H-1,2,3-triazol-1-yl)-2-((3,5-dichlorophenyl)((1S,2S)-2-hydroxycyclopentyl)carbamoyl)-5-hydroxy-6-(hydroxymethyl)tetrahydro-2H-pyran-3-yl acetate]
16.4 | CC(=O)O[C@@H]1[C@@H](n2cc(-c3cc(F)c(Cl)c(F)c3)nn2)[C@@H](O)[C@@H](CO)O[C@H]1C(=O)N(c1cc(Cl)cc(C#N)c1)[C@H]1CCC[C@@H]1O [Example 1A.5.4, (2R,3R,4S,5R,6R)-4-(4-(4-chloro-3,5-difluorophenyl)-1H-1,2,3-triazol-1-yl)-2-((3-chloro-5-cyanophenyl)((1S,2S)-2-hydroxycyclopentyl)carbamoyl)-5-hydroxy-6-(hydroxymethyl)tetrahydro-2H-pyran-3-yl acetate]
14.3 | O=C([C@@H]1O[C@H](CO)[C@H](O)[C@H](n2cc(-c3cc(F)c(Cl)c(F)c3)nn2)[C@H]1O)N(c1cc(Cl)cc(Cl)c1)[C@H]1CCC[C@@H]1O [Example 1H.5.2, (2R,3R,4S,5R,6R)-4-(4-(4-chloro-3,5-difluorophenyl)-1H-1,2,3-triazol-1-yl)-N-(3,5-dichlorophenyl)-3,5-dihydroxy-N-((1S,2S)-2-hydroxycyclopentyl)-6-(hydroxymethyl)tetrahydro-2H-pyran-2-carboxamide]
